Ends that are not written are not given here. Peptide text beside a SMILES is read from it.
How the values were obtained:
Type in all cases: cell-based
S. aureus ATCC 25923 = system: S. aureus ATCC 25923
Procedure: (§1) 2.3Details of the wet-lab evaluation […]
(§2) Pathogens used for minimum inhibitory concentration (MIC) measurements included E. coli ATCC 25922 and S. aureus
(§3) ATCC 25923. Both pathogens were streaked on Luria–Bertani (LB) agar and incubated at 37°C overnight. Individual colonies
(§4) were then selected from the agar plates and transferred to Mueller–Hinton broth (MHB) (Hopebio, China) for further cultivation.
(§5) The cultures were shaken at 160 rpm at 37°C overnight. Once the turbidity of the bacterial suspensions reached between 0.4
(§6) and 0.6 McFarland (MCF), the suspensions were diluted 20-fold with MHB. For the preparation of antimicrobial peptide
(§7) solutions, chemically synthesized peptides were dissolved in either ultrapure water (Biosharp, China) or dimethyl sulfoxide
(§8) (DMSO) (Biosharp, China) to achieve a stock concentration of […]. This stock solution was then further diluted with
(§9) MHB to obtain the concentration gradient of 2 to 512 µg/mL for testing. Subsequently, 200 µL of each peptide dilution was
(§10) pipetted into 96-well plates, followed by the addition of 10 µL of the diluted bacterial suspension to each well. The plates were
(§11) incubated at 37°C for 14-20 hours, and MIC values were determined as the lowest peptide concentration at which no bacterial
(§12) growth was observed. Antimicrobial activity assays were conducted in 96-well plates with […] experimental groups as follows:
(§13) 1) blank control group, containing 200 µL of MHB without bacterial suspension; 2) bacterial control group, with 200 µL of
(§14) MHB and 10 µL of bacterial suspension without peptide; 3) peptide treatment groups, consisting of 200 µL of MHB containing
(§15) varying peptide concentration gradient of 2 to 512 µg/mL along with 10 µL of bacterial suspension. All experiments were
(§16) conducted in triplicate. The positive (proper growth of bacteria) and negative (sterility) controls were included.
(§17) The Cell Counting Kit-8 (CCK-8) assay was employed to evaluate the cytotoxicity of peptides against human lung epithelial
(§18) Beas-2B cells. The cells were seeded at a density of 5× 10^3 cells per 100 µL in 96-well plates and cultured overnight at 37°C
(§19) with 5% CO2. Subsequently, the cells were treated with 100 µL of F-12K medium (Procell, China) containing the peptide
(§20) concentration gradient of 4 to 512 µg/mL and incubated for 24 hours. After incubation, 10 µL of CCK-8 solution (Abbkine,
(§21) China) was added to each well, and the cells were incubated for an additional 4 hours at 37°C. Optical density (OD) at 450 nm
(§22) was measured using an automated microplate reader (BioTek, USA). Each treatment was performed in six duplicate wells.
(§23) Cell viability was calculated as the percentage relative to the control, using the formula: Cell viability (%) = [(OD[peptide] -
(§24) OD[blank]) / (OD[control] - OD[blank])] × 100%.
(§25) 3.1More landscape for peptide datasets
(§26) For the diversity of GO terms, the biological process category encompasses 3,430 terms (accounting for 47% of the total terms)
(§27) and 245,683 peptides (representing 22% of the total peptides); the cellular component category includes 819 terms (11%) and
(§28) 469,675 peptides (43%); the molecular function category covers 3,017 terms (42%) and 389,436 peptides (35%). In the context
(§29) of pathogen diversity (Table 1), the Gram-positive group comprises 24 distinct pathogens (accounting for 43% of the total
(§30) pathogen numbers), and 31,726 peptide terms (representing 49% of the total peptide numbers). The Gram-negative group is
(§31) characterized by 17 pathogens (constituting 30% of the pathogen diversity), and 28,206 peptide terms (making up 44% of the […]

E. coli ATCC 25922 = conditions: for antimicrobial activity against E. coli (in words): activity threshold defined as MIC ⩽ 128 µg mL^−1; for MIC against E. coli: ATCC 25922
Procedure: as §1, §2, §3, §4, §5, §6, §7, §8, §9, §10, §11, §12, §13, §14, §15, §16, §17, §18, §19, §20, §21, §22, §23, §24, §25, §26, §27, §28, §29, §30, §31

[1] = system: human lung epithelial Beas-2B cells; conditions: 24 h

Compound | MIC against S. aureus (S. aureus ATCC 25923; ATCC 25923) | antimicrobial activity against S. aureus (in words) (S. aureus ATCC 25923; activity threshold defined as MIC ⩽ 128 µg mL^−1) | antimicrobial activity against E. coli (in words) (E. coli ATCC 25922) | peptide concentration causing 50% cytotoxicity (CC50) [1] | MIC against E. coli (E. coli ATCC 25922)
AKRYYWRWFKHWYRFAHG [Pep10] | 16 µg/mL | exhibit antimicrobial activity | exhibit antimicrobial activity | ≥ 256 µg/mL | 
MARRKPLGKKLRLRAAFK [Pep8] |  |  |  |  | ≥ 512 µg/mL
CC(C)C[C@H](NC(=O)[C@H](Cc1ccc(O)cc1)NC(=O)CNC(=O)[C@H](CO)NC(=O)[C@H](CC(C)C)NC(=O)[C@H](CCCNC(=N)N)NC(=O)[C@H](CCCNC(=N)N)NC(=O)[C@@H](NC(=O)[C@H](Cc1ccccc1)NC(=O)[C@H](CC(C)C)NC(=O)[C@@H](N)Cc1ccccc1)C(C)C)C(=O)N[C@@H](CC(N)=O)C(=O)N[C@@H](Cc1ccc(O)cc1)C(=O)N[C@H](C(=O)N[C@H](C(=O)N[C@@H](CCCNC(=N)N)C(=O)N[C@@H](CS)C(=O)N[C@@H](CCCNC(=N)N)C(=O)N[C@@H](CCCNC(=N)N)C(=O)N[C@@H](Cc1ccccc1)C(=O)N[C@@H](CCCCN)C(=O)N[C@@H](Cc1ccccc1)C(=O)N[C@@H](CS)C(=O)N[C@@H](C)C(=O)O)C(C)C)[C@@H](C)O [Pep6] (H-FLFVRRLSGYLNYTVRCRRFKFCA-OH; N-terminus and C-terminus assumed) |  |  | demonstrated the activity |  | 
KRTSQQRLQRLITVGRFRLW [Pep7] |  |  |  |  | ≥ 512 µg/mL

— PMC12591163, “Controllable Generation of Pathogen‐Specific Antimicrobial Peptides Through Knowledge‐Aware Prompt Diffusion Model” (Advanced Science, 2025)
